US20260345728A1, “COMBINATION THERAPY WITH BRAF INHIBITORS FOR THE TREATMENT OF CANCER” (FUNDACIÓ PRIVADA INSTITUT D'INVESTIGACIÓ ONCOLÒGICA DE VALL …, priority 2023, published 2026)

Columns and labels:
melanoma SkMel37 cells = assay: AlamarBlue cell viability with ZIP synergy scoring (SynergyFinder 3.0), SkMel37; assay type: cell-based, human; conditions: single agent; 5 days; FIG. 1
Method: A human melanoma cell line with mutations in BRAF (BRAF^V600E) (SkMel37) was used. Cells were plated in 96 well plates and treated on the following day with increasing concentrations of dabrafenib and Omomyc, alone or in combination. After 5 days of treatment, media was removed and AlamarBlue™ Cell Viability Reagent was added to each well, incubated for 3 hours until metabolized, and fluorescence was read with a microplate reader using an excitation between 530-560 and an emission at 590 nm.
Synergy was evaluated using SynergyFinder 3.0 web application derived from lanevsky A et al. Nucleic Acids Res. 2022; 50(W1):W739-W743.
Synergy scores can be interpreted as the average excess response due to drug interactions. Synergy scores close to 0 give limited confidence in synergy or antagonism. So, when the synergy scores are: less than −10, the interaction between two drugs is likely to be antagonistic. From −10 to 10, the interaction between two drugs is likely to be additive. Greater than 10, the interaction between two drugs is likely to be synergistic.

late-stage melanoma = conditions: cited from earlier work
[1] = tested on: wild type and mutant BRAF metastatic melanoma; conditions: cited from earlier work
mutant BRAF = conditions: cited from earlier work

Structure (SMILES)	reduction of viability of the cells (melanoma SkMel37 cells)	tumors that develop resistance to the treatment (late-stage melanoma) [%]	off-target side-effects ([1]; human, in vivo)	clinical activity ([1]; monotherapy or in combination with dacarbazine)	selectivity for mutant BRAF (mutant BRAF)
CC(C)(C)c1nc(-c2cccc(NS(=O)(=O)c3c(F)cccc3F)c2F)c(-c2ccnc(N)n2)s1 [dabrafenib]	significantly reduces the viability of the cells	20			
CNC(=O)c1cc(Oc2ccc(NC(=O)Nc3ccc(Cl)c(C(F)(F)F)c3)cc2)ccn1 [sorafenib]			intolerable off-target side-effects	failed to demonstrate any activity	unable to selectively target mutant BRAF
CCCS(=O)(=O)Nc1ccc(F)c(C(=O)c2c[nH]c3ncc(-c4ccc(Cl)cc4)cc23)c1F [vemurafenib]		20			
